{
  "source": "paper PMC5218480",
  "about": "(PLoS ONE, 2017)",
  "system": "MV-4-11 cells",
  "assay": "Gene expression microarray analysis (Affymetrix PrimeView) and GSEA",
  "format": "cell-based, human",
  "parameters": "RFU PODN (11730768_x_at) / Fold change /veh PODN (11730768_x_at) / RFU LINC00158 (11744669_a_at) / Fold change /veh LINC00158 (11744669_a_at) / RFU DUSP10 (11751237_a_at) / Fold change /veh DUSP10 (11751237_a_at) / RFU ID3 (11757404_x_at) / Fold change /veh ID3 (11757404_x_at) / RFU PLEKHG5 (11737974_s_at) / Fold change /veh PLEKHG5 (11737974_s_at) / RFU LRRC4B (11730491_at) / Fold change /veh LRRC4B (11730491_at) / RFU GIMAP4 (11747438_a_at) / Fold change /veh GIMAP4 (11747438_a_at) / RFU KRT8 (11758183_x_at) / Fold change /veh KRT8 (11758183_x_at) / RFU CNN1 (11734310_a_at) / Fold change /veh CNN1 (11734310_a_at) / RFU VPS37D (11726825_at) / Fold change /veh VPS37D (11726825_at) / RFU C10orf10 (11716522_x_at) / Fold change /veh C10orf10 (11716522_x_at) / RFU KIR2DL2 /// KIR2DL4 /// KIR2DL5A /// KIR2DL5B /// KIR2DS1 /// KIR2DS2 /// KIR2DS3 /// KIR2DS4 /// KIR3DL3 /// KIR3DL3 /// KIR3DS1 (11738374_at) / Fold change /veh KIR2DL2 /// KIR2DL4 /// KIR2DL5A /// KIR2DL5B /// KIR2DS1 /// KIR2DS2 /// KIR2DS3 /// KIR2DS4 /// KIR3DL3 /// KIR3DL3 /// KIR3DS1 (11738374_at) / RFU C1QL1 (11718748_at) / Fold change /veh C1QL1 (11718748_at) / RFU TMPRSS4 (11747572_a_at) / Fold change /veh TMPRSS4 (11747572_a_at) / RFU HAMP (11756126_x_at) / Fold change /veh HAMP (11756126_x_at) / RFU RNFT2 (11725882_a_at) / Fold change /veh RNFT2 (11725882_a_at) / RFU NR4A2 (11747474_a_at) / Fold change /veh NR4A2 (11747474_a_at) / RFU ABCC12 (11746883_a_at) / Fold change /veh ABCC12 (11746883_a_at) / RFU TMEM136 (11760407_x_at) / Fold change /veh TMEM136 (11760407_x_at) / RFU CLDN22 /// WWC2 (11732394_at) / Fold change /veh CLDN22 /// WWC2 (11732394_at) / RFU HLA-DPB1 (11760878_x_at) / Fold change /veh HLA-DPB1 (11760878_x_at) / RFU SPINT1 (11716480_a_at) / Fold change /veh SPINT1 (11716480_a_at) / RFU GAP43 (11754022_s_at) / Fold change /veh GAP43 (11754022_s_at) / RFU A4GNT (11735810_at) / Fold change /veh A4GNT (11735810_at) / RFU PRB3 (11715151_x_at) / Fold change /veh PRB3 (11715151_x_at) / RFU TUBB4B (11761932_at) / Fold change /veh TUBB4B (11761932_at) / RFU CAPN14 (11732068_a_at) / Fold change /veh CAPN14 (11732068_a_at) / RFU TMCC2 (11721928_a_at) / Fold change /veh TMCC2 (11721928_a_at) / RFU IRGQ (11745062_a_at) / Fold change /veh IRGQ (11745062_a_at) / RFU FAM174B (11720279_a_at) / Fold change /veh FAM174B (11720279_a_at) / RFU TMPRSS4 (11748680_a_at) / Fold change /veh TMPRSS4 (11748680_a_at) / RFU FAM212B (11763350_a_at) / Fold change /veh FAM212B (11763350_a_at) / RFU PLEKHG5 (11743358_a_at) / Fold change /veh PLEKHG5 (11743358_a_at) / RFU ZSCAN30 (11745921_a_at) / Fold change /veh ZSCAN30 (11745921_a_at) / RFU CMKLR1 (11741424_a_at) / Fold change /veh CMKLR1 (11741424_a_at) / RFU LOC101060620 /// MAPK8IP1 (11723275_at) / Fold change /veh LOC101060620 /// MAPK8IP1 (11723275_at) / RFU SPTSSB (11747773_x_at) / Fold change /veh SPTSSB (11747773_x_at) / RFU PRSS12 (11739890_at) / Fold change /veh PRSS12 (11739890_at) / RFU BIN1 (11741810_x_at) / Fold change /veh BIN1 (11741810_x_at) / RFU WNT11 (11732464_a_at) / Fold change /veh WNT11 (11732464_a_at) / RFU C10orf10 (11716521_a_at) / Fold change /veh C10orf10 (11716521_a_at) / RFU C5orf56 (11738089_at) / Fold change /veh C5orf56 (11738089_at) / RFU CYB561 (11721691_x_at) / Fold change /veh CYB561 (11721691_x_at) / RFU ANKRD19P (11752326_a_at) / Fold change /veh ANKRD19P (11752326_a_at) / RFU OR2T12 /// OR2T33 /// OR2T8 (11738714_s_at) / Fold change /veh OR2T12 /// OR2T33 /// OR2T8 (11738714_s_at) / RFU VCAN (11748164_a_at) / Fold change /veh VCAN (11748164_a_at) / RFU JSRP1 (11732532_at) / Fold change /veh JSRP1 (11732532_at) / RFU KRTAP10-11 (11738290_x_at) / Fold change /veh KRTAP10-11 (11738290_x_at) / RFU MYO3A (11730013_a_at) / Fold change /veh MYO3A (11730013_a_at) / RFU EBF3 (11725865_a_at) / Fold change /veh EBF3 (11725865_a_at) / RFU CAMK2N1 (11719241_x_at) / Fold change /veh CAMK2N1 (11719241_x_at) / RFU C5orf56 (11738088_a_at) / Fold change /veh C5orf56 (11738088_a_at) / RFU OLFML3 (11715873_a_at) / Fold change /veh OLFML3 (11715873_a_at) / RFU LOC100653217 /// NTM (11731650_a_at) / Fold change /veh LOC100653217 /// NTM (11731650_a_at) / RFU MAPK11 (11762145_a_at) / Fold change /veh MAPK11 (11762145_a_at) / RFU FIZ1 (11724087_x_at) / Fold change /veh FIZ1 (11724087_x_at) / RFU OASL (11726364_x_at) / Fold change /veh OASL (11726364_x_at) / RFU SOX15 (11748057_x_at) / Fold change /veh SOX15 (11748057_x_at) / RFU CD79A (11719716_a_at) / Fold change /veh CD79A (11719716_a_at) / RFU HIST1H1D (11736915_at) / Fold change /veh HIST1H1D (11736915_at) / RFU CASKIN2 (11723855_a_at) / Fold change /veh CASKIN2 (11723855_a_at) / RFU LOC730098 (11760151_x_at) / Fold change /veh LOC730098 (11760151_x_at) / RFU OR4N2 (11742367_at) / Fold change /veh OR4N2 (11742367_at) / RFU PRRT2 (11749266_a_at) / Fold change /veh PRRT2 (11749266_a_at) / RFU SNX32 (11753110_a_at) / Fold change /veh SNX32 (11753110_a_at) / RFU CDHR5 (11726645_a_at) / Fold change /veh CDHR5 (11726645_a_at) / RFU RCAN1 (11760418_a_at) / Fold change /veh RCAN1 (11760418_a_at) / RFU FAM167A (11723789_a_at) / Fold change /veh FAM167A (11723789_a_at) / RFU FAM26E (11764081_at) / Fold change /veh FAM26E (11764081_at) / RFU ISYNA1 (11749810_s_at) / Fold change /veh ISYNA1 (11749810_s_at) / RFU ACY1 (11761880_at) / Fold change /veh ACY1 (11761880_at) / RFU 11764098_at / Fold change /veh 11764098_at / RFU SAMD14 (11745864_x_at) / Fold change /veh SAMD14 (11745864_x_at) / RFU NPB (11741838_a_at) / Fold change /veh NPB (11741838_a_at) / RFU TMPRSS6 (11731388_a_at) / Fold change /veh TMPRSS6 (11731388_a_at) / RFU KRTAP10-2 (11738614_at) / Fold change /veh KRTAP10-2 (11738614_at) / RFU ARHGAP8 /// PRR5-ARHGAP8 (11727945_x_at) / Fold change /veh ARHGAP8 /// PRR5-ARHGAP8 (11727945_x_at) / RFU KRTAP5-7 /// NADSYN1 (11734609_at) / Fold change /veh KRTAP5-7 /// NADSYN1 (11734609_at) / RFU RASL12 (11751679_a_at) / Fold change /veh RASL12 (11751679_a_at) / RFU CDKN2B (11736163_a_at) / Fold change /veh CDKN2B (11736163_a_at) / RFU PRF1 (11729649_at) / Fold change /veh PRF1 (11729649_at) / RFU, ZNF638 /// ZNF638-IT1 / Fold change vs veh, ZNF638 /// ZNF638-IT1 / RFU, PANK3 / Fold change vs veh, PANK3 / RFU, SH3YL1 / Fold change vs veh, SH3YL1 / RFU, ZEB2 / Fold change vs veh, ZEB2 / RFU, NRIP1 / Fold change vs veh, NRIP1 / RFU, PTTG1IP / Fold change vs veh, PTTG1IP / RFU, CAPN2 / Fold change vs veh, CAPN2 / RFU, MED14 / Fold change vs veh, MED14 / RFU, SNORA58 / Fold change vs veh, SNORA58 / RFU, C1orf63 / Fold change vs veh, C1orf63 / RFU, LRRFIP1 / Fold change vs veh, LRRFIP1 / RFU, NDUFAF7 / Fold change vs veh, NDUFAF7 / RFU, SLC12A2 / Fold change vs veh, SLC12A2 / RFU, IBTK / Fold change vs veh, IBTK / RFU, ESF1 / Fold change vs veh, ESF1 / Fold change vs veh, TMEM50B / RFU, TAOK1 / Fold change vs veh, TAOK1 / RFU, ACBD3 / Fold change vs veh, ACBD3 / RFU, TMA16 / Fold change vs veh, TMA16 / RFU, RWDD3 / Fold change vs veh, RWDD3 / RFU, BCAT1 / Fold change vs veh, BCAT1 / RFU, EDEM3 / Fold change vs veh, EDEM3 / RFU, TMEM33 / Fold change vs veh, TMEM33 / RFU, WDR75 / Fold change vs veh, WDR75 / RFU, AHCTF1 / Fold change vs veh, AHCTF1 / RFU, TFRC / Fold change vs veh, TFRC / RFU, ZDHHC17 / Fold change vs veh, ZDHHC17 / RFU, NOM1 / Fold change vs veh, NOM1 / RFU, ARL8B / Fold change vs veh, ARL8B / RFU, ZBTB11 / Fold change vs veh, ZBTB11 / RFU, TAMM41 / Fold change vs veh, TAMM41 / RFU, KIAA1704 /// LOC100996395 / Fold change vs veh, KIAA1704 /// LOC100996395 / RFU, ING1 / Fold change vs veh, ING1 / RFU, TRMT61B / Fold change vs veh, TRMT61B / RFU, FUBP3 / Fold change vs veh, FUBP3 / RFU, TP53 / Fold change vs veh, TP53 / RFU, TNKS2 / Fold change vs veh, TNKS2 / RFU, ZFP14 / Fold change vs veh, ZFP14 / RFU, ACTR2 / Fold change vs veh, ACTR2 / RFU, PPP3R1 / Fold change vs veh, PPP3R1 / RFU, PIK3R1 / Fold change vs veh, PIK3R1 / RFU, HNRNPA1 / Fold change vs veh, HNRNPA1 / RFU, RNF170 / Fold change vs veh, RNF170 / RFU, ZNF28 / Fold change vs veh, ZNF28 / RFU, RNGTT / Fold change vs veh, RNGTT / RFU, OGT / Fold change vs veh, OGT / RFU, BRD1 / Fold change vs veh, BRD1 / RFU, MARS / Fold change vs veh, MARS / RFU, ZNF655 / Fold change vs veh, ZNF655 / RFU, FAHD1 / Fold change vs veh, FAHD1 / RFU, BDP1 / Fold change vs veh, BDP1 / RFU, LRRCC1 / Fold change vs veh, LRRCC1 / RFU, ARID1A / Fold change vs veh, ARID1A / RFU, ZNF146 / Fold change vs veh, ZNF146 / RFU, ZNF330 / Fold change vs veh, ZNF330 / RFU, GPN3 / Fold change vs veh, GPN3 / RFU, C9orf123 / Fold change vs veh, C9orf123 / RFU, N4BP2L2 / Fold change vs veh, N4BP2L2 / RFU, ARFIP1 / Fold change vs veh, ARFIP1 / RFU, FAM179B / Fold change vs veh, FAM179B / RFU, BCL10 / Fold change vs veh, BCL10 / RFU, UHRF1BP1L / Fold change vs veh, UHRF1BP1L / RFU, BET1 / Fold change vs veh, BET1 / RFU, CNOT2 / Fold change vs veh, CNOT2 / RFU, ZNF268 / Fold change vs veh, ZNF268 / Fold change vs veh, ZNF507 / RFU, DGCR2 / Fold change vs veh, DGCR2 / RFU, WDSUB1 / Fold change vs veh, WDSUB1 / Fold change vs veh, HSP90B1 /// MIR3652 / RFU, ADSS / Fold change vs veh, ADSS / RFU, GK / Fold change vs veh, GK / RFU, ZNF148 / Fold change vs veh, ZNF148 / RFU, TAF9 / Fold change vs veh, TAF9 / RFU, SLC1A5 / Fold change vs veh, SLC1A5 / RFU, SLMO2 / Fold change vs veh, SLMO2 / RFU, ABCC4 / Fold change vs veh, ABCC4 / RFU, LOC101060439 /// RAP1B / Fold change vs veh, LOC101060439 /// RAP1B / RFU, RFX7 / Fold change vs veh, RFX7 / RFU, GTPBP10 / Fold change vs veh, GTPBP10 / RFU, CNEP1R1 / Fold change vs veh, CNEP1R1 / RFU, BIVM-ERCC5 /// ERCC5 / Fold change vs veh, BIVM-ERCC5 /// ERCC5 / RFU, ILF3 / Fold change vs veh, ILF3 / RFU 11762660_at / Fold change /veh 11762660_at / RFU VCAN (11757783_s_at) / Fold change /veh VCAN (11757783_s_at) / RFU DDX43 (11728927_at) / Fold change /veh DDX43 (11728927_at) / RFU KRT8 (11758188_x_at) / Fold change /veh KRT8 (11758188_x_at) / RFU NKD1 (11759106_at) / Fold change /veh NKD1 (11759106_at) / RFU SRD5A1 (11742802_a_at) / Fold change /veh SRD5A1 (11742802_a_at) / RFU TPSAB1 /// TPSB2 (11721975_s_at) / Fold change /veh TPSAB1 /// TPSB2 (11721975_s_at) / RFU GSTM3 (11746129_a_at) / Fold change /veh GSTM3 (11746129_a_at) / RFU IL23R (11737362_x_at) / Fold change /veh IL23R (11737362_x_at) / RFU TMEM51 (11727254_a_at) / Fold change /veh TMEM51 (11727254_a_at) / RFU PIWIL2 (11732686_x_at) / Fold change /veh PIWIL2 (11732686_x_at) / RFU ORM1 (11744905_x_at) / Fold change /veh ORM1 (11744905_x_at) / RFU CCDC152 (11743942_at) / Fold change /veh CCDC152 (11743942_at) / RFU ECM1 (11717891_a_at) / Fold change /veh ECM1 (11717891_a_at) / RFU IL23R (11748794_a_at) / Fold change /veh IL23R (11748794_a_at) / RFU TNFAIP8L3 (11732012_x_at) / Fold change /veh TNFAIP8L3 (11732012_x_at) / RFU MBOAT4 (11741988_at) / Fold change /veh MBOAT4 (11741988_at) / RFU 11764193_at / Fold change /veh 11764193_at / RFU TMEM53 (11763286_at) / Fold change /veh TMEM53 (11763286_at) / RFU MAGEB2 (11727129_at) / Fold change /veh MAGEB2 (11727129_at) / RFU TMEM200A (11744735_a_at) / Fold change /veh TMEM200A (11744735_a_at) / RFU CCDC152 (11751479_a_at) / Fold change /veh CCDC152 (11751479_a_at) / RFU FAM211A (11726209_a_at) / Fold change /veh FAM211A (11726209_a_at) / RFU RGS16 (11746705_a_at) / Fold change /veh RGS16 (11746705_a_at) / RFU VCAN (11755009_s_at) / Fold change /veh VCAN (11755009_s_at) / RFU RHOB (11743442_s_at) / Fold change /veh RHOB (11743442_s_at) / RFU RGS16 (11720943_a_at) / Fold change /veh RGS16 (11720943_a_at) / RFU RGS16 (11720944_at) / Fold change /veh RGS16 (11720944_at) / RFU, VPS4B / Fold change vs veh, VPS4B / RFU, CREB1 / Fold change vs veh, CREB1 / RFU, DNAJC13 / Fold change vs veh, DNAJC13 / RFU, GNAQ / Fold change vs veh, GNAQ / RFU, CDK5R1 / Fold change vs veh, CDK5R1 / RFU, ZRANB3 / Fold change vs veh, ZRANB3 / RFU, CUL4A / Fold change vs veh, CUL4A / RFU, CCNY / Fold change vs veh, CCNY / RFU, UFL1 / Fold change vs veh, UFL1 / RFU, COG3 / Fold change vs veh, COG3 / RFU, DIAPH2 / Fold change vs veh, DIAPH2 / RFU, SKA2 / Fold change vs veh, SKA2 / RFU, AFF3 / Fold change vs veh, AFF3 / RFU, LMF1 / Fold change vs veh, LMF1 / RFU, IPO11 / Fold change vs veh, IPO11 / RFU, DFFB / Fold change vs veh, DFFB / RFU, FOXP1 / Fold change vs veh, FOXP1 / RFU, CARD8 / Fold change vs veh, CARD8 / RFU, STRN3 / Fold change vs veh, STRN3 / RFU, ADK / Fold change vs veh, ADK / RFU, RASSF2 / Fold change vs veh, RASSF2 / RFU, WIPF1 / Fold change vs veh, WIPF1 / RFU, LARP1B / Fold change vs veh, LARP1B / RFU, RASA1 / Fold change vs veh, RASA1 / RFU, RB1 / Fold change vs veh, RB1 / RFU, PPFIA1 / Fold change vs veh, PPFIA1 / RFU, MAT2A / Fold change vs veh, MAT2A / RFU, CCT5 / Fold change vs veh, CCT5 / RFU, WDR92 / Fold change vs veh, WDR92 / RFU, CUX1 / Fold change vs veh, CUX1 / RFU, TTC7A / Fold change vs veh, TTC7A / RFU, TMEM135 / Fold change vs veh, TMEM135 / RFU, DEPTOR / Fold change vs veh, DEPTOR / RFU, CPM / Fold change vs veh, CPM / RFU, DNAJB6 / Fold change vs veh, DNAJB6 / RFU, CACNA2D3 / Fold change vs veh, CACNA2D3 / RFU, DTX4 / Fold change vs veh, DTX4 / RFU, TFCP2 / Fold change vs veh, TFCP2 / RFU, GMCL1 /// GMCL1P1 / Fold change vs veh, GMCL1 /// GMCL1P1 / RFU, AEBP2 / Fold change vs veh, AEBP2 / RFU, SNHG1 /// SNORD22 /// SNORD25 /// SNORD26 /// SNORD27 /// SNORD28 /// SNORD29 /// SNORD31 / Fold change vs veh, SNHG1 /// SNORD22 /// SNORD25 /// SNORD26 /// SNORD27 /// SNORD28 /// SNORD29 /// SNORD31 / Fold change (Aza/veh), C12orf56 (ProbeSet 11735607_a_at) / Fold change (ACY-1035/veh), C12orf56 (ProbeSet 11735607_a_at) / Fold change (Aza/veh), FGFR1OP (ProbeSet 11751329_s_at) / Fold change (ACY-1035/veh), FGFR1OP (ProbeSet 11751329_s_at) / Fold change (Aza/veh), VPS36 (ProbeSet 11739960_a_at) / Fold change (ACY-1035/veh), VPS36 (ProbeSet 11739960_a_at) / RFU SYPL1 (11715823_x_at) / Fold change /veh SYPL1 (11715823_x_at) / RFU IGFBP7 (11715501_s_at) / Fold change /veh IGFBP7 (11715501_s_at) / RFU REEP3 (11722064_at) / Fold change /veh REEP3 (11722064_at) / RFU IGLL1 (11728026_x_at) / Fold change /veh IGLL1 (11728026_x_at): dose or concentration left out as unconfirmed",
  "conditions": "ProbeSet 11721611_a_at; LIST D",
  "data": [
    {"smiles": "Nc1ncn([C@@H]2O[C@H](CO)[C@@H](O)[C@H]2O)c(=O)n1", "note": "[azacitidine]", "values": [
      {"measurement": "Fold change vs veh, IPO11", "value": 0.66}
    ]}
  ]
}
